Values after ≈ are worked out from the molar mass of the structure shown.
What was measured:
[1] = test system: Trichophyton mentagrophytes MTU 19001; assay: MIC by agar dilution method; assay type: cell-based; settings: MTU19001, Sabouraud's agar medium
Source text: (§1) The minimum inhibitory concentrations (MIC) of PC-766B against various microorgnisms as measured by the agar dilution method are shown in Table 4.
(§2) Note: *^1 1: Modified MullerHinton agar medium; 2: Sabouraud's agar

[2] = test system: Aspergillus fumigatus MTU 16001; assay: MIC by agar dilution method; assay type: cell-based; settings: MTU16001, Sabouraud's agar medium
Source text: as §1, §2

[3] = test system: Candida albicans MTU 12001; assay: MIC by agar dilution method; assay type: cell-based; settings: MTU12001, Sabouraud's agar medium
Source text: as §1, §2

Bacillus cereus IAM 1029 = assay: MIC by agar dilution method; assay type: cell-based; settings: IAM1029, Modified MullerHinton agar medium
Source text: as §1, §2

[4] = test system: Streptococcus pyogenes Cook; assay: MIC by agar dilution method; assay type: cell-based; settings: Modified MullerHinton agar medium
Source text: as §1, §2

[5] = test system: Staphylococcus aureus 209P; assay: MIC by agar dilution method; assay type: cell-based; settings: Modified MullerHinton agar medium
Source text: as §1, §2

Serratia marcescens ×100 = assay: MIC by agar dilution method; assay type: cell-based; settings: Modified MullerHinton agar medium
Source text: as §1, §2

Pseudomonas aeruginosa T = assay: MIC by agar dilution method; assay type: cell-based; settings: Modified MullerHinton agar medium
Source text: as §1, §2

[6] = test system: Micrococcus luteus ATCC 9341; assay: MIC by agar dilution method; assay type: cell-based; settings: ATCC9341, Modified MullerHinton agar medium
Source text: as §1, §2

[7] = test system: Proteus mirabilis GN 2425; assay: MIC by agar dilution method; assay type: cell-based; settings: GN2425, Modified MullerHinton agar medium
Source text: as §1, §2

[8] = test system: Bacillus subtilis ATCC 6633; assay: MIC by agar dilution method; assay type: cell-based; settings: ATCC6633, Modified MullerHinton agar medium
Source text: as §1, §2

[9] = test system: Escherichia coli NIJH JC-2; assay: MIC by agar dilution method; assay type: cell-based; settings: NIJHJC2, Modified MullerHinton agar medium
Source text: as §1, §2

[10] = test system: Klebsiella pneumoniae ATCC 10031; assay: MIC by agar dilution method; assay type: cell-based; settings: ATCC10031, Modified MullerHinton agar medium
Source text: as §1, §2

[11] = test system: Staphylococcus epidermidis IAM 1296; assay: MIC by agar dilution method; assay type: cell-based; settings: IAM1296, Modified MullerHinton agar medium
Source text: as §1, §2

[12] = test system: Cryptococcus neoformans MTU 13001; assay: MIC by agar dilution method; assay type: cell-based; settings: MTU13001, Sabouraud's agar medium
Source text: as §1, §2

Solubility = assay type: physicochemical

CC=CC=CC1OC(O)(C(C)C(O)C(C)C2OC(=O)C(OC)=CC(C)=CC(C)C(O)C(C)CC(C)=CC=CC2OC)CC(OC2CC(O)C(O)C(C)O2)C1C (centres unmarked) [PC-766B]
MIC [1]: > 100 µg/mL | MIC [2]: > 100 µg/mL | MIC [3]: > 100 µg/mL | MIC (Bacillus cereus IAM 1029): 3.13 µg/mL (≈ 4.03 µM) | MIC [4]: 3.13 µg/mL (≈ 4.03 µM) | MIC [5]: 12.5 µg/mL (≈ 16.1 µM) | MIC (Serratia marcescens ×100): > 200 µg/mL | MIC (Pseudomonas aeruginosa T): > 200 µg/mL | MIC [6]: 1.56 µg/mL (≈ 2.01 µM) | MIC [7]: > 200 µg/mL | MIC [8]: 6.25 µg/mL (≈ 8.04 µM) | MIC [9]: > 200 µg/mL | MIC [10]: > 200 µg/mL | MIC [11]: 6.25 µg/mL (≈ 8.04 µM) | MIC [12]: 12.5 µg/mL (≈ 16.1 µM) | Solubility (Solubility; methanol, chloroform and ethyl acetate): soluble in methanol, chloroform and ethyl acetate | Solubility (Solubility; n-hexane and water): insoluble in n-hexane and water

Reference: patent publication US4764602A, “Antibiotics, and their production” (Sumitomo Chemical Company, priority 1986, dated 1988)
